Measurements taken from ChEMBL document CHEMBL3885861, “Open TG-GATES”.

Species on record: Rattus norvegicus
Assay: Open TG-GATES - Regimen: Single
Type: toxicity, organism-based, Sprague-Dawley
Parameters: regimen Single, gender Male, age 6 weeks
Conditions: in vivo, po, 1000 mg/kg, route gavage, dose level High; for APTT / Bas / Eos / Fbg / Hb / Lym / MCH / MCHC / MCV / Mono / Neu / PT / Plat / RBC / Ret / WBC / Ht: tissue Blood; for KIDNEY_L / KIDNEY_R / KIDNEY_TOTAL: tissue Kidney; for LIVER: tissue Liver; for ALP / ALT / CRE / DBIL / GLC / IP / K / LDH / Na / PL / RALB / TBIL / TC / TG / TP / gamma-GTP / AST / BUN / Ca: tissue Plasma

O=C(O)c1cn(C2CC2)c2cc(N3CCNCC3)c(F)cc2c1=O [CIPROFLOXACIN]
TERMINAL_BW (3 h): 182 g | APTT (3 h): 17 s | Bas (3 h): 0% | Eos (3 h): 0.4% | Fbg (3 h): 215.6 mg/dL | Hb (3 h): 12.9 g/dL | Lym (3 h): 80.4% | MCH (3 h): 21.7 pg | MCHC (3 h): 33.1% | MCV (3 h): 65.5 fL | Mono (3 h): 6.6% | Neu (3 h): 12.6% | PT (3 h): 12.6 s | Plat (3 h): 101.8 x10_4/uL | RBC (3 h): 592.8 x10_4/ul | Ret (3 h): 11.2% | WBC (3 h): 101.3 x10_2/uL | KIDNEY_L (3 h): 0.8 g | KIDNEY_R (3 h): 0.8 g | KIDNEY_TOTAL (3 h): 1.7 g | LIVER (3 h): 8.6 g | ALP (3 h): 791 IU/L | ALT (3 h): 36.8 IU/L | CRE (3 h): 0.5 mg/dL | DBIL (3 h): 0.022 mg/dL | GLC (3 h): 191.2 mg/dL | IP (3 h): 10.3 mg/dL | K (3 h): 4.7 meq/L | LDH (3 h): 132.2 IU/L | Na (3 h): 139 meq/L | PL (3 h): 141 mg/dL | RALB (3 h): 3.8 g/dL | TBIL (3 h): 0.3 mg/dL | TC (3 h): 81.2 mg/dL | TG (3 h): 47 mg/dL | TP (3 h): 5.6 g/dL | gamma-GTP (3 h): 1.4 IU/L | TERMINAL_BW (6 h): 179.7 g | Bas (6 h): 0% | Eos (6 h): 0.8% | Fbg (6 h): 210.4 mg/dL | Hb (6 h): 12.9 g/dL | Ht (6 h): 39.1% | Lym (6 h): 78.2% | MCHC (6 h): 32.9% | MCV (6 h): 67.5 fL | Mono (6 h): 7.6% | Neu (6 h): 13.8% | PT (6 h): 12.5 s | Plat (6 h): 100.8 x10_4/uL | RBC (6 h): 579.8 x10_4/ul | Ret (6 h): 10% | WBC (6 h): 97.6 x10_2/uL | KIDNEY_L (6 h): 0.8 g | KIDNEY_R (6 h): 0.8 g | KIDNEY_TOTAL (6 h): 1.7 g | LIVER (6 h): 7.9 g | ALP (6 h): 904.2 IU/L | AST (6 h): 69.4 IU/L | BUN (6 h): 10 mg/dL | CRE (6 h): 0.5 mg/dL | Ca (6 h): 11.4 mg/dL | DBIL (6 h): 0.052 mg/dL | GLC (6 h): 185.8 mg/dL | IP (6 h): 10.8 mg/dL | K (6 h): 5.3 meq/L | LDH (6 h): 140.4 IU/L | Na (6 h): 138 meq/L | PL (6 h): 137.2 mg/dL | RALB (6 h): 3.7 g/dL | TBIL (6 h): 0.3 mg/dL | TC (6 h): 79.8 mg/dL | TP (6 h): 5.5 g/dL | gamma-GTP (6 h): 1 IU/L | TERMINAL_BW (9 h): 176.2 g | APTT (9 h): 16.9 s | Bas (9 h): 0% | Eos (9 h): 0.8% | Fbg (9 h): 223 mg/dL | Hb (9 h): 13.2 g/dL | Ht (9 h): 39.9% | Lym (9 h): 83.6% | MCH (9 h): 22 pg | MCHC (9 h): 33% | MCV (9 h): 66.5 fL | Mono (9 h): 5.8% | Neu (9 h): 10% | PT (9 h): 11.4 s | Plat (9 h): 104.6 x10_4/uL | RBC (9 h): 601 x10_4/ul | WBC (9 h): 94.6 x10_2/uL | KIDNEY_L (9 h): 0.8 g | KIDNEY_R (9 h): 0.9 g | KIDNEY_TOTAL (9 h): 1.7 g | LIVER (9 h): 7.3 g | ALP (9 h): 763.8 IU/L | AST (9 h): 71.4 IU/L | BUN (9 h): 11 mg/dL | CRE (9 h): 0.5 mg/dL | Ca (9 h): 10.8 mg/dL | DBIL (9 h): 0.08 mg/dL | GLC (9 h): 192.4 mg/dL | IP (9 h): 11 mg/dL | K (9 h): 5.2 meq/L | LDH (9 h): 168.2 IU/L | Na (9 h): 139 meq/L | PL (9 h): 131.4 mg/dL | RALB (9 h): 3.8 g/dL | TBIL (9 h): 0.3 mg/dL | TC (9 h): 78 mg/dL | TG (9 h): 22.2 mg/dL | TP (9 h): 5.6 g/dL | gamma-GTP (9 h): 1.4 IU/L | TERMINAL_BW (24 h): 193.6 g | APTT (24 h): 15.4 s | Bas (24 h): 0% | Eos (24 h): 0.8% | Fbg (24 h): 219.4 mg/dL | Hb (24 h): 13.5 g/dL | Ht (24 h): 40.1% | Lym (24 h): 80% | MCHC (24 h): 33.6% | Mono (24 h): 6.4% | Neu (24 h): 12.6% | PT (24 h): 12.4 s | Plat (24 h): 106.5 x10_4/uL | RBC (24 h): 600.2 x10_4/ul | Ret (24 h): 9.1% | WBC (24 h): 110.9 x10_2/uL | KIDNEY_L (24 h): 0.8 g | KIDNEY_R (24 h): 0.9 g | KIDNEY_TOTAL (24 h): 1.7 g | LIVER (24 h): 8.7 g | ALP (24 h): 1158.6 IU/L | ALT (24 h): 49 IU/L | BUN (24 h): 19.2 mg/dL | CRE (24 h): 0.5 mg/dL | Ca (24 h): 11.3 mg/dL | DBIL (24 h): 0.028 mg/dL | GLC (24 h): 183.8 mg/dL | IP (24 h): 9.9 mg/dL | K (24 h): 4.6 meq/L | LDH (24 h): 177.2 IU/L | Na (24 h): 140 meq/L | PL (24 h): 146.4 mg/dL | RALB (24 h): 4 g/dL | TBIL (24 h): 0.2 mg/dL | TC (24 h): 84 mg/dL | TG (24 h): 51.2 mg/dL | TP (24 h): 6 g/dL | gamma-GTP (24 h): 1.2 IU/L
